# Measurements reported in US20260124166A1, “COMPOSITIONS AND METHODS USING GLYCINE TO REDUCE BIOLOGICAL AGE OF AN ADULT ANIMAL” (Société des Produits Nestlé S.A., priority 2022, published 2026).
# What was measured:
# [1] = old mice (21 months), 1.6 g/kg food glycine in diet for 6 weeks, vs old control diet and young (4 months) mice
# Source text: 28 wild-type C57BL/6J mice of 21-months old and 12 wild-type C57BL/6J mice of 4-months old were kept in a temperature-and humidity-controlled environment with a 12:12-h light-dark cycle. Mice had access to nesting and enrichment materials and were provided with ad libitum access to water and food.
# (§1) Mice underwent to a dietary supplementation for 6 weeks. The young control group (n=12) and old control group (n=14) received a commercial standard powdered diet (Safe 150, Safe Diets), with 20% humidity. […] At the end of the treatment, mice were euthanized with isoflurane after 2-hours fasting. Muscle gastrocnemius has been dissected and samples were snap frozen in liquid nitrogen and stored at −80° C.
# Tissue pieces were excised on dry ice with liquid nitrogen cooled scalpels and kept at −80° C. until extraction. For extraction, samples were homogenized in 300 μL −20 ° C. methanol/water (5:3), including a fully labelled 13C yeast biomass as internal standard, using 5 mm stainless steel beads in a tissue grinder (Qiagen TissueLyser II) for up to 3 min at 23 Hz. […] The protein pellets were quantified with a bicinchoninic acid assay for later normalization and the polar phases, containing the metabolites of interest, were dried overnight in a vacuum centrifuge at 4° C. and 5 mbar and stored at −80° C. until analysis. […]
# [2] = old mice (21 months), 1.6 g/kg food glycine in diet for 6 weeks, compared to old mice with control diet
# Procedure: All animal experiments were performed according to national Swiss and EU ethical guidelines and approved by the local animal experimentation committee under license VD3519. 28 wild-type C57BL/6J mice of 21-months old and 12 wild-type C57BL/6J mice of 4-months old were kept in a temperature-and humidity-controlled environment with a 12:12-h light-dark cycle. Mice had access to nesting and enrichment materials and were provided with ad libitum access to water and food.
# as §1
# DNA extraction was performed on 100 mg of muscle using QIAGEN DNeasy Blood and Tissue kit (Cat. No: 69506) and following manufacturer recommendations. DNA was quantified using the DropSense technology (Unchained Labs). […]
# Raw data were sent to the Clock Foundation, who performed the analyses to calculate the biological age of the samples. […] Data were plotted and analysed using R. One-tailed parametric t statistics was performed to test the effect of the glycine supplementation compared to the control diet.
structure (smiles),measurement,setting,value
NCC(=O)O [glycine],glycine levels in muscle,[1],significantly restores them toward young levels
same,"biological age (DNA methylation, muscle specific clock)",[2],biological age decreases significantly
